# Assay results published in ChEMBL document CHEMBL1138473, “NMR and molecular dynamics study of the binding mode of naphthalene-N-sulfonyl-D-glutamic acid derivatives: novel MurD ligase inhibitors” (J Med Chem, 2009).
# Experiment: Inhibition of Escherichia coli BL21-A1 MurD
row,IC50 [µM],Structure (SMILES)
1,180,CCCCOc1ccc2ccc(S(=O)(=O)N[C@H](CCC(=O)O)C(=O)O)cc2c1
2,630,O=C(O)CC[C@@H](NS(=O)(=O)c1ccc2cc(OCC(=O)O)ccc2c1)C(=O)O
3,810,O=C(O)CC[C@@H](NS(=O)(=O)c1ccc2ccccc2c1)C(=O)O
4,192,CCOC(=O)COc1ccc2cc(S(=O)(=O)N[C@H](CCC(=O)O)C(=O)O)ccc2c1
5,239,O=C(O)CC[C@@H](NS(=O)(=O)c1ccc2cc(OCc3ccccc3)ccc2c1)C(=O)O
6,710,CCCCOc1ccc2cc(S(=O)(=O)N[C@@H](CCC(=O)O)C(=O)O)ccc2c1
7,400,O=C(O)CC[C@@H](NS(=O)(=O)c1ccc2cc(OC3CCCC3)ccc2c1)C(=O)O
8,132,O=C(O)CC[C@@H](NS(=O)(=O)c1ccc2cc(OCCCc3ccccc3)ccc2c1)C(=O)O
9,280,CCCCOc1ccc2cc(S(=O)(=O)N[C@H](CCC(=O)O)C(=O)O)ccc2c1
